Test results published in US6949542B2, “Dihydro-benzo[b][1,4]diazepin-2-one derivatives” (Hoffman-La Roche Inc., priority 2002, dated 2005).

Q: With `Cc1cc(-c2cccc(C3=Nc4cc(C)c(Cl)cc4NC(=O)C3)c2)ncn1` [Example 309, 8-Chloro-7-methyl-4-[3-(6-methyl-pyrimidin-4-yl)-phenyl]-1,3-dihydro-benzo[b][1,4]diazepin-2-one] as the molecule, how does the melting point read?
A: 226 to 227 °C

Q: For `Cc1cc(-c2cccc(C3=Nc4cc(N(C)C)c(C(F)(F)F)cc4NC(=O)C3)c2)ncn1` [Example 310, 7-Dimethylamino-4-[3-(6-methyl-pyrimidin-4-yl)-phenyl]-8-trifluoromethyl-1,3-dihydro-benzo[b][1,4]diazepin-2-one], which melting point is on record?
A: 232 to 236 °C

Q: Which melting point does the source give for `Cc1cc(-c2cccc(C3=Nc4ccc(Cl)cc4NC(=O)C3)c2)ncn1` [Example 312, 8-Chloro-4-[3-(6-methyl-pyrimidin-4-yl)-phenyl]-1,3-dihydro-benzo[b][1,4]diazepin-2-one] here?
A: 199 to 200 °C

Q: With `Cc1cc(-c2cccc(C3=Nc4cc(Cl)c(Cl)cc4NC(=O)C3)c2)ncn1` [Example 313, 7,8-Dichloro-4-[3-(6-methyl-pyrimidin-4-yl)-phenyl]-1,3-dihydro-benzo[b][1,4]diazepin-2-one] as the molecule, how does the melting point read?
A: 220 to 222 °C

Q: Which melting point does the source give for `Cc1cc(-c2cccc(C3=Nc4ccc(-n5cccc5)cc4NC(=O)C3)c2)ncn1` [Example 314, 4-[3-(6-Methyl-pyrimidin-4-yl)-phenyl]-8-pyrrol-1-yl-1,3-dihydro-benzo[b][1,4]diazepin-2-one] here?
A: 242 to 243 °C

Q: Which melting point does the source give for `Cc1cc(-c2cccc(C3=Nc4cc(C)c(C(F)(F)F)cc4NC(=O)C3)c2)nc(N)n1` [Example 315, 4-[3-(2-Amino-6-methyl-pyrimidin-4-yl)-phenyl]-7-methyl-8-trifluoromethyl-1,3-dihydro-benzo[b][1,4]diazepin-2-one] here?
A: 248 to 250 °C

Q: With `Cc1cc(-c2cccc(C3=Nc4cc(C)c(Cl)cc4NC(=O)C3)c2)nc(N)n1` [Example 316, 4-[3-(2-Amino-6-methyl-pyrimidin-4-yl)-phenyl]-8-chloro-7-methyl-1,3-dihydro-benzo[b][1,4]diazepin-2-one] as the molecule, how does the melting point read?
A: 242 to 243 °C

Q: Which melting point does the source give for `Cc1cc(-c2cccc(C3=Nc4cc(N(C)C)c(C(F)(F)F)cc4NC(=O)C3)c2)nc(N)n1` [Example 317, 4-[3-(2-Amino-6-methyl-pyrimidin-4-yl)-phenyl]-7-dimethylamino-8-trifluoromethyl-1,3-dihydro-benzo[b][1,4]diazepin-2-one] here?
A: 250 to 253 °C

Q: For `CNc1nc(C)cc(-c2cccc(C3=Nc4cc(C)c(C(F)(F)F)cc4NC(=O)C3)c2)n1` [Example 318, 7-Methyl-4-[3-(6-methyl-2-methylamino-pyrimidin-4-yl)-phenyl]-8-trifluoromethyl-1,3-dihydro-benzo[b][1,4]diazepin-2-one], which melting point is on record?
A: 241 to 243 °C

Q: For `CNc1nc(C)cc(-c2cccc(C3=Nc4cc(C)c(Cl)cc4NC(=O)C3)c2)n1` [Example 319, 8-Chloro-7-methyl-4-[3-(6-methyl-2-methylamino-pyrimidin-4-yl)-phenyl]-1,3-dihydro-benzo[b][1,4]diazepin-2-one], which melting point is on record?
A: 235 to 237 °C

Q: For `Cc1cc(-c2cccc(C3=Nc4cc(C)c(C(F)(F)F)cc4NC(=O)C3)c2)nc(N(C)C)n1` [Example 320, 4-[3-(2-Dimethylamino-6-methyl-pyrimidin-4-yl)-phenyl]-7-methyl-8-trifluoromethyl-1,3-dihydro-benzo[b][1,4]diazepin-2-one], which melting point is on record?
A: 248 to 252 °C

Q: For `Cc1cc(-c2cccc(C3=Nc4cc(C)c(Cl)cc4NC(=O)C3)c2)nc(N(C)C)n1` [Example 321, 8-Chloro-4-[3-(2-dimethylamino-6-methyl-pyrimidin-4-yl)-phenyl]-7-methyl-1,3-dihydro-benzo[b][1,4]diazepin-2-one], which melting point is on record?
A: 248 to 250 °C

Q: Which melting point does the source give for `Cc1cc(-c2cccc(C3=Nc4cc(C)c(Cl)cc4NC(=O)C3)c2)nc(NCCO)n1` [Example 323, 8-Chloro-4-{3-[2-(2-hydroxy-ethylamino)-6-methyl-pyrimidin-4-yl]-phenyl}-7-methyl-1,3-dihydro-benzo[b][1,4]diazepin-2-one] here?
A: 197 to 199 °C

Q: Which melting point does the source give for `COCCNc1nc(C)cc(-c2cccc(C3=Nc4cc(C)c(C(F)(F)F)cc4NC(=O)C3)c2)n1` [Example 324, 4-{3-[2-(2-Methoxy-ethylamino)-6-methyl-pyrimidin-4-yl]-phenyl}-7-methyl-8-trifluoromethyl-1,3-dihydro-benzo[b][1,4]diazepin-2-one] here?
A: 236 to 238 °C

Q: Which melting point does the source give for `COCCNc1nc(C)cc(-c2cccc(C3=Nc4cc(C)c(Cl)cc4NC(=O)C3)c2)n1` [Example 325, 8-Chloro-4-{3-[2-(2-methoxy-ethylamino)-6-methyl-pyrimidin-4-yl]-phenyl}-7-methyl-1,3-dihydro-benzo[b][1,4]diazepin-2-one] here?
A: 222 to 224 °C

Q: Which melting point does the source give for `Cc1cc2c(cc1C(F)(F)F)NC(=O)CC(c1cccc(-c3cc(N)ncn3)c1)=N2` [Example 328, 4-[3-(6-Amino-pyrimidin-4-yl)-phenyl]-7-methyl-8-trifluoromethyl-1,3-dihydro-benzo[b][1,4]diazepin-2-one] here?
A: 201 to 205 °C

Q: Which melting point does the source give for `Cc1cc2c(cc1Cl)NC(=O)CC(c1cccc(-c3cc(N)ncn3)c1)=N2` [Example 329, 4-[3-(6-Amino-pyrimidin-4-yl)-phenyl]-8-chloro-7-methyl-1,3-dihydro-benzo[b][1,4]diazepin-2-one] here?
A: 228 to 233 °C

Q: Which melting point does the source give for `CNc1cc(-c2cccc(C3=Nc4cc(C)c(C(F)(F)F)cc4NC(=O)C3)c2)ncn1` [Example 330, 7-Methyl-4-[3-(6-methylamino-pyrimidin-4-yl)-phenyl]-8-trifluoromethyl-1,3-dihydro-benzo[b][1,4]diazepin-2-one] here?
A: 232 to 233 °C

Q: With `CNc1cc(-c2cccc(C3=Nc4cc(C)c(Cl)cc4NC(=O)C3)c2)ncn1` [Example 331, 8-Chloro-7-methyl-4-[3-(6-methylamino-pyrimidin-4-yl)-phenyl]-1,3-dihydro-benzo[b][1,4]diazepin-2-one] as the molecule, how does the melting point read?
A: 240 to 243 °C

Q: For `Cc1cc2c(cc1C(F)(F)F)NC(=O)CC(c1cccc(-c3cc(N(C)C)ncn3)c1)=N2` [Example 332, 4-[3-(6-Dimethylamino-pyrimidin-4-yl)-phenyl]-7-methyl-8-trifluoromethyl-1,3-dihydro-benzo[b][1,4]diazepin-2-one], which melting point is on record?
A: 239 to 242 °C

Q: For `Cc1cc2c(cc1Cl)NC(=O)CC(c1cccc(-c3cc(N(C)C)ncn3)c1)=N2` [Example 333, 8-Chloro-4-[3-(6-dimethylamino-pyrimidin-4-yl)-phenyl]-7-methyl-1,3-dihydro-benzo[b][1,4]diazepin-2-one], which melting point is on record?
A: 226 to 228 °C

Q: Which melting point does the source give for `COCCNc1cc(-c2cccc(C3=Nc4cc(C)c(Cl)cc4NC(=O)C3)c2)ncn1` [Example 334, 8-Chloro-4-{3-[6-(2-methoxy-ethylamino)-pyrimidin-4-yl]-phenyl}-7-methyl-1,3-dihydro-benzo[b][1,4]diazepin-2-one] here?
A: 211 to 213 °C

Q: With `Cc1cc2c(cc1Cl)NC(=O)CC(c1cccc(-c3ncccn3)c1)=N2` [Example 335, 8-Chloro-7-methyl-4-(3-pyrimidin-2-yl-phenyl)-1,3-dihydro-benzo[b][1,4]diazepin-2-one] as the molecule, how does the melting point read?
A: 223 to 227 °C

Q: For `CN(C)c1cc2c(cc1C(F)(F)F)NC(=O)CC(c1cccc(-c3ncccn3)c1)=N2` [Example 337, 7-Dimethylamino-4-(3-pyrimidin-2-yl-phenyl)-8-trifluoromethyl-1,3-dihydro-benzo[b][1,4]diazepin-2-one], which melting point is on record?
A: 221 to 223 °C
